Reference: US20260138970A1, “MODULATORS OF THE CALCIUM SIGNALING CASCADE” (FONDAZIONE TELETHON ETS, priority 2022, published 2026)

Assays:
Type in all cases: cell-based
TMEM16A = test: HS-YFP assay in FRT cells co-expressing TMEM16A and HS-YFP; details: for potentiation of the effect of UTP on TMEM16A: primary screening and secondary tests, compounds 10 μM
Experimental: Experiments were performed using an automated microplate reader (FLUOstar Omega, BMG Labtech, Offenburg, Germany) equipped with syringe pumps and optical excitation/emission filters optimized for yellow fluorescent protein (YFP) fluorescence (ET500/20× and ET535/30m, respectively; Chroma Technology Corporation). FRT cells with co-expression of TMEM16A and HS-YFP were plated at high density in black wall/clear bottom 96-well microplates (3603, Corning). Each well in microplates was washed 3 times with 150 μl of phosphate-buffered saline (PBS). After washing, each well received 60 μl of PBS containing test compounds at 10 μM final concentration, or TMEM16A inhibitor Ani9 (15) (10 μM), or vehicle. After 20 min of incubation at 37° C., microplates were transferred to the plate reader for fluorescence assay. Each well was assayed individually for TMEM16A-mediated I^− influx by sampling cell fluorescence every 200 ms for 14 s. Two seconds after the start of reading, 165 μl of a modified PBS containing 137 mM KI, instead of NaCl, plus UTP 0.25 μM were automatically added by the reader. K^+ was used in the injected solution to prevent changes of membrane potential due to altered activity of Ca^2+-activated K^+ channels. The fluorescence trace in each well was corrected by background subtraction and then normalized for the initial value measured before I^− addition (F0). The cumulative fluorescence quenching (CFQ) in the time interval between 3 and 13.8 s (representing integration of TMEM16A-dependent I^− influx) was quantified using a procedure compiled in Microsoft Excel according to the formula
For the screening, FRT cells were plated at high density in 96-well microplates. After 48 h, TMEM16A activity was evaluated in a microplate reader by injection in each well of a saline solution containing I^− instead of Cl^− and a submaximal (0.25 μM) UTP concentration (FIG. 1A). Upon injection, UTP triggers Ca^2+ mobilization and TMEM16A activation. The resulting TMEM16A-dependent I^− influx causes HS-YFP quenching. The presence in the well of a small molecule that potentiates TMEM16A activity, in a direct or indirect way, is therefore expected to enhance the rate of HS-YFP quenching.

ITPR = test: ci-IP3/PM uncaging Ca2+ imaging assay in FRT cells; details: compounds 10 μM; FIG. 4
Experimental: FRT and HEK293 cells were cultured in μ-Plate96 microplates (Ibidi) at subconfluent condition. Cells were washed 2 times with PBS (150 μl/wash) and then loaded for 45 min at 37° C. with 1 μM ci-IP3/PM (Tocris; catalog number: 6210/10U) and 5 μM Fluo-4/AM (Thermo Fisher Scientific) in PBS containing 10 mM glucose, 0.5 mM sulfinpyrazone and 1% fetal bovine serum. After 45 min, cells were further incubated for 1 h at 37° C. with a fresh PBS solution containing Fluo-4/AM, glucose, sulfinpyrazone, serum, but no ci-IP3/PM. After the second loading, cells were washed 2 times with PBS-glucose-sulfinpyrazone (150 μl/wash) and incubated for 20 min at 37° C. with 125 μl of PBS plus 10 mM glucose and 0.5 mM sulfinpyrazone containing compounds of interest at 10 μM final concentration or vehicle. Each well was assayed individually using an inverted Olympus microscope equipped with 40×oil immersion objective, 530 nm emission filter, Lambda DG4 (Sutter Instrument Co., Novato, CA, USA) illumination system with a 490 nm excitation filter, (Olympus, Segrate, Italy), Prime cmos camera (Photometrics, Tucson, AZ, USA) and MetaFluor imaging acquisition software (Molecular Devices, Sunnyvale, CA, USA). Time-lapse experiments were carried out with 50 ms exposure time, 0.5 s interval and 1.8 min total duration. […] Analysis was performed with MetaFluor software, by quantifying Fluo-4 fluorescence in manually selected single cell region of interest (ROI). Eight cells were selected in each field to generate an average trace. After background subtraction, fluorescence traces were normalized for the initial value.

R269W ITPR1 = target: T1, R269W ITPR1 (Homo sapiens, UniProt Q14643, R269W); test: Fluo-4 Ca2+ assay, UTP, HEK293 cells with inducible R269W ITPR1; details: UTP 5 μM; compound 10 μM; tetracycline-induced; FIG. 6B-C
T1 construct: expressed in transfected cells
T1 sequence (Q14643 whole entry R269W): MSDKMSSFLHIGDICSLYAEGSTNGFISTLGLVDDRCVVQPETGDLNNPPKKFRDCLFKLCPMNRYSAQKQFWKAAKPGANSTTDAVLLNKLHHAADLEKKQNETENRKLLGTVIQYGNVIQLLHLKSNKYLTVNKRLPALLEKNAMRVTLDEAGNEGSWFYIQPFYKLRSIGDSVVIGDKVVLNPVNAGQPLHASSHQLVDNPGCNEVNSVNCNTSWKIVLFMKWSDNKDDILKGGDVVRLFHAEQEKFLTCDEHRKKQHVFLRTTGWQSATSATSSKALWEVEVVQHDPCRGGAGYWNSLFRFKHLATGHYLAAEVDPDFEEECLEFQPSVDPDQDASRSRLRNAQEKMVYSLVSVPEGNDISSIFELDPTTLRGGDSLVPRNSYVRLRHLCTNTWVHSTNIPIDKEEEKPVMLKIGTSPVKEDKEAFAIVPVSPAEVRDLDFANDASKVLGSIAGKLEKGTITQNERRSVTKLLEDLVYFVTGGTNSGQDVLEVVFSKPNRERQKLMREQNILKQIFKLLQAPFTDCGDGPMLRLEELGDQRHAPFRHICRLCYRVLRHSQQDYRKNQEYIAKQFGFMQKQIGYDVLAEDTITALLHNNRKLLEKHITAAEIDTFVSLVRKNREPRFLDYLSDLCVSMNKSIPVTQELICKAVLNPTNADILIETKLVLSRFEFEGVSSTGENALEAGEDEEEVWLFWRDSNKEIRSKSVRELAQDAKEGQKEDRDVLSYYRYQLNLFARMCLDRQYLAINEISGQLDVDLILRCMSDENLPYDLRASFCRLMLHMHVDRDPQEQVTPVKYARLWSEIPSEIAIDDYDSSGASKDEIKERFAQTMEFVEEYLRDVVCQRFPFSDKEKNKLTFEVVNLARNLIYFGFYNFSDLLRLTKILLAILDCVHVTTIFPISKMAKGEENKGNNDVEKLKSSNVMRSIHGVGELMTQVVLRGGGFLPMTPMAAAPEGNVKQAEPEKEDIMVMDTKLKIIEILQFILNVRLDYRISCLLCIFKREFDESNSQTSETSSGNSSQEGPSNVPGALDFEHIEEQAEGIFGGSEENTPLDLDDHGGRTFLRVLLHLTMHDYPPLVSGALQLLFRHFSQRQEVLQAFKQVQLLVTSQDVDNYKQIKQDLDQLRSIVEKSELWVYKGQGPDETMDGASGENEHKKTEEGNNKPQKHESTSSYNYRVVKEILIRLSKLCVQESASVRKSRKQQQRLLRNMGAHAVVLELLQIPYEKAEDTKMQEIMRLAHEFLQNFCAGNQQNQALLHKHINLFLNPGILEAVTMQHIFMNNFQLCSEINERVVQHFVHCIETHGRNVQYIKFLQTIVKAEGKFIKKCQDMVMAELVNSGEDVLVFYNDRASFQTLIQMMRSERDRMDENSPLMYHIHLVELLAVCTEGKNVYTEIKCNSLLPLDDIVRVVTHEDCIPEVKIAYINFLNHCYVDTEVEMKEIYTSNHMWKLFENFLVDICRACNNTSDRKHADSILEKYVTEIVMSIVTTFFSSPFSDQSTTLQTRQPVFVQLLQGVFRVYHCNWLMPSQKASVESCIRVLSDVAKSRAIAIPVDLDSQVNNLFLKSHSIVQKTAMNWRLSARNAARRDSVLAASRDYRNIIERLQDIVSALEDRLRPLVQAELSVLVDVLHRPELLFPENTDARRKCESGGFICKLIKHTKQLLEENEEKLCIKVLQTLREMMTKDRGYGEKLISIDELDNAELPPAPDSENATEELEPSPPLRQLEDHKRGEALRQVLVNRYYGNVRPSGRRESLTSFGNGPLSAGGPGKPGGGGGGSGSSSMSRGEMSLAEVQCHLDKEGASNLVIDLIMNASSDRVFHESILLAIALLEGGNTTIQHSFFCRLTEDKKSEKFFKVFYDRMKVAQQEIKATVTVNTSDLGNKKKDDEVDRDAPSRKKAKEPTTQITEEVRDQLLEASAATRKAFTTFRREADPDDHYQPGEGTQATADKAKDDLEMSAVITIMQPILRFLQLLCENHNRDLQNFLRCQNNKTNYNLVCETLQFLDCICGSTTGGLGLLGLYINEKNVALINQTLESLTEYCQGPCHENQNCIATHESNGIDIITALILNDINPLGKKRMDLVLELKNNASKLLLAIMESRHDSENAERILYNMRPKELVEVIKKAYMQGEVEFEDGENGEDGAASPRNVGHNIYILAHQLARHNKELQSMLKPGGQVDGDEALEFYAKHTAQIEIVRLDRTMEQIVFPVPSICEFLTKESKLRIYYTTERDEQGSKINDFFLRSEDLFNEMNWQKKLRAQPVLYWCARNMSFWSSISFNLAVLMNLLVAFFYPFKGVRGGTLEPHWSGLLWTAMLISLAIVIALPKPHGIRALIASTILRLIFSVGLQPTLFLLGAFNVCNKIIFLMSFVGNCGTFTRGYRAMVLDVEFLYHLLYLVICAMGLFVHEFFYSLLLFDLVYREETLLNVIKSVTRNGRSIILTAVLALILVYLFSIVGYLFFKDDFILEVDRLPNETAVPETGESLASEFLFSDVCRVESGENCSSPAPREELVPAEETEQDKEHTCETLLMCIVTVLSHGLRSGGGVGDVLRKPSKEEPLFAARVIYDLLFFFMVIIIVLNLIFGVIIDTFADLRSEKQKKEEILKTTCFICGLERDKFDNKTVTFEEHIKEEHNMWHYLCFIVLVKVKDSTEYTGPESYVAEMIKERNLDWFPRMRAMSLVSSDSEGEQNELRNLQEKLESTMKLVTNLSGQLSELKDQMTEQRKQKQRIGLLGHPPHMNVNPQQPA
Experimental: HEK293 cells stably transfected with tetracycline-inducible expression of wild type or mutant (R269W or T267M) ITPR1, kindly provided by Prof. S. R. Wayne Chen (University of Calgary; ref. 14), were cultured in a mixture of Dulbecco's Modified Eagle Medium (DMEM, high glucose version) and Ham's F12 (1:1) and supplemented with 10% fetal bovine serum, 2 mM L-glutamine, 100 U/ml penicillin and 100 μg/ml streptomycin. Cells were selected with 0.5 mg/ml hygromycin B and induced with 1 μg/ml tetracycline.
Experiments were performed using the microplate reader described for the HS-YFP assay. FRT and HEK293 cells were cultured until confluence in 96-well microplates (3603, Corning). Cells were washed 2 times with PBS (150 μl/wash) and then loaded for 1 h at 37° C. with 5 μM Fluo-4/AM (Thermo Fisher Scientific; catalog number: F23917) in PBS containing 10 mM glucose, 0.5 mM sulfinpyrazone, and 1% fetal bovine serum. After loading, cells were washed 2 times with PBS-glucose-sulfinpyrazone (150 μl/wash) and incubated for 20 min at 37° C. with 60 μl of PBS plus 10 mM glucose and 0.5 mM sulfinpyrazone containing compounds of interest at 10 μM final concentration or vehicle. Each well was assayed individually. Fluo-4 fluorescence (500 nm excitation, 535 nm emission) was detected every 200 ms for 16-40 s. Two seconds after the start of fluorescence recording, the reader automatically injected 165 μl of a modified PBS containing 136 mM KCl instead of NaCl. This solution also contained 10 mM glucose, 0.5 mM sulfinpyrazone, and UTP or SLIGR-NH2 (CAS #171436-38-7) at a final concentration that depended on the specific cell type. For UTP we used: 0.25 μM for FRT; 1 μM for HEKR2; 5 μM for HEK3XKO, HEKR1, and HEKR3. For SLIGR-NH2 we used: 10 μM for HEKR1; 4 μM for HEKR2. These concentrations were chosen to elicit ˜20% of maximal effect based on UTP and SLIGR-NH2 dose-response relationships. […] The Fluo-4 fluorescence increase was quantified using a procedure compiled in Microsoft Excel after background subtraction and normalization for the initial value measured before UTP addition.

[1] = FRT cells expressing TMEM16A, UTP 0.25 μM, FIG. 1D

Row | SMILES | concentrations at which effective / active, dose-response by HS-YFP assay (TMEM16A; [1]) | shape of dose-response relationship, HS-YFP assay (TMEM16A; [1]) | potentiation of the effect of UTP on TMEM16A (TMEM16A) | activity on Ca2+ mobilization by IP3 uncaging, FRT cells (ITPR) | potentiation of Ca2+ mobilization elicited by UTP, R269W mutant (R269W ITPR1)
1 | CCc1cc(-c2cc(NCCCOc3ccccc3C)nc(N)n2)n(C)n1 [ARN7149, 6-(3-Ethyl-1-methyl-1H-pyrazol-5-yl)-N^4-(3-(o-tolyloxy)propyl)pyrimidine-2,4-diamine] | 5 to 20 µM | bell-shaped | significantly potentiated | inactive | also effective although less than ARN11391
2 | CCn1nc2c(c1C(=O)Nc1ccccc1OCC1CCCCO1)CCCC2 (stereo not shown) [ARN11391, 2-Ethyl-N-[2-(tetrahydropyran-2-ylmethoxy)phenyl]-4,5,6,7-tetrahydroindazole-3-carboxamide] | 10 µM | – | significantly potentiated | showed activity | marked potentiation
3 | OCc1ccccc1CN(Cc1ccnc(N2CCCC2)n1)c1ccc(F)cc1 [ARN4550, [2-[[4-Fluoro-N-[(2-pyrrolidin-1-ylpyrimidin-4-yl)methyl]anilino]methyl]phenyl]methanol] | 10 µM | – | significantly potentiated | inactive | also effective although less than ARN11391
